Experimental findings from ChEMBL document CHEMBL4834463, “Synthesis and fungicidal activity of novel 2-(2-alkylthio-6-phenylpyrimidin-4-yl)-1H-benzimidazoles” (Bioorg Med Chem Lett, 2021) are described below.

Values after ≈ are worked out from the molar mass of the structure shown.

Experiment [1] concerns Botrytis cinerea. The experiment is described as follows: Antifungal activity against Botrytis cinerea assessed as inhibition of mycelia growth incubated for 48 hrs. In kind it is functional, organism-based.
The subject of experiment [2] is Sclerotinia sclerotiorum. The experiment is described as follows: Antifungal activity against Sclerotinia sclerotiorum assessed as inhibition of mycelia growth incubated for 48 hrs. In kind it is functional, organism-based.

As usually defined, the EC50 is the concentration giving half of the maximal effect. In the case of `COc1ccc(-c2cc(-c3nc4ccccc4[nH]3)nc(SC)n2)cc1`, the values for the concentration for a half-maximal effect (EC50) in experiment [1] and in experiment [2] were 0.41 µg/mL (≈ 1.18 µM) and 23.5 µg/mL (≈ 67.4 µM), respectively.
In the same order, the values of `CSc1nc(-c2ccccc2)cc(-c2nc3ccccc3[nH]2)n1` are 0.15 µg/mL (≈ 0.471 µM) and 45 µg/mL (≈ 141 µM).
In the same order, the values of `COC(=O)Nc1nc2ccccc2[nH]1` [CARBENDAZIM] are 0.21 µg/mL (≈ 1.1 µM) and 13.3 µg/mL (≈ 69.7 µM).
`Clc1ccc(-c2cc(-c3nc4ccccc4[nH]3)nc(SCc3ccccc3)n2)cc1`: the EC50 in experiment [1] is 0.2 µg/mL (≈ 0.466 µM); in experiment [2] it was 14 µg/mL (≈ 32.6 µM).
For the compound `COc1ccc(-c2cc(-c3nc4ccccc4[nH]3)nc(SCc3ccccc3)n2)cc1`, the 50% effective concentration (EC50) in experiment [1] is 0.28 µg/mL (≈ 0.66 µM); in experiment [2] it was 10.2 µg/mL (≈ 24 µM).
On the same counts, the results for `CCCCSc1nc(-c2ccccc2)cc(-c2nc3ccccc3[nH]2)n1` are 0.34 µg/mL (≈ 0.943 µM) and 22.3 µg/mL (≈ 61.9 µM).
In the same order, the values of `CCCCSc1nc(-c2ccc(Cl)cc2)cc(-c2nc3ccccc3[nH]2)n1` are 10.1 µg/mL (≈ 25.6 µM) and 20.6 µg/mL (≈ 52.1 µM).
On the same counts, the results for `Fc1ccc(-c2cc(-c3nc4ccccc4[nH]3)nc(SCc3ccccc3)n2)cc1` are 0.14 µg/mL (≈ 0.339 µM) and 4.65 µg/mL (≈ 11.3 µM).
Regarding `CCCCSc1nc(-c2ccc(F)cc2)cc(-c2nc3ccccc3[nH]2)n1`, the EC50 amounted to 0.16 µg/mL (≈ 0.423 µM) in experiment [1] and 6.72 µg/mL (≈ 17.8 µM) in experiment [2].
On to `CSc1nc(-c2ccc(Cl)cc2)cc(-c2nc3ccccc3[nH]2)n1`, for which the 50% effective concentration (EC50) in experiment [1] stood at 1.15 µg/mL (≈ 3.26 µM); in experiment [2], 17.3 µg/mL (≈ 49 µM).
On the same counts, the results for `c1ccc(CSc2nc(-c3ccccc3)cc(-c3nc4ccccc4[nH]3)n2)cc1` are 7.02 µg/mL (≈ 17.8 µM) and 8.95 µg/mL (≈ 22.7 µM).
For `CSc1nc(-c2ccc(F)cc2)cc(-c2nc3ccccc3[nH]2)n1`, the EC50 is 0.95 µg/mL (≈ 2.82 µM) in experiment [1] and 16.6 µg/mL (≈ 49.5 µM) in experiment [2].
In the same order, the values of `CCCCSc1nc(-c2ccc(OC)cc2)cc(-c2nc3ccccc3[nH]2)n1` are 2.45 µg/mL (≈ 6.27 µM) and 16.4 µg/mL (≈ 41.9 µM).
